# Experimental data from the METLIN SMRT retention time set (Domingo-Almenara et al. 2019).
# Experiment: gradient 5% acetonitrile 3 min, to 50% in 2 min, to 85% in 15 min, held 3 min, 100 µL/min
# Conditions: column: Zorbax Extend-C18 2.1 x 50 mm; eluents: water / acetonitrile, 0.1% formic acid
# Outline: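 Each retention time is based on an adduct peak selected computationally and verified by manual inspection. Measurements used HPLC–quadrupole time-of-flight mass spectrometry in positive and negative ionization mode on mixtures of ~100 pure standards. Chromatography ran on a Zorbax Extend-C18 column (2.1 × 50 mm, 1.8 μm) at 100 μL/min with water and acetonitrile, each containing 0.1% formic acid, and dead and dwell volumes of 40 μL and 900 μL.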
row,Compound,RP-LC retention time [s]
1,CC(C)(C)n1nc(C2CC2)cc1NC(=O)Nc1ccccc1,889
2,CC1CCCCN1CCNC(=O)CCCn1c(=O)c2cccn2c2ccccc21 (configuration not stated),621
3,COc1ccc(C2(C(=O)N3CC(c4nc(CCOCC5CCOCC5)no4)C3)CC2)cc1,812
4,CC1CCN(C(=O)C2=NN(Cc3ccccc3)c3ccccc3S2(=O)=O)CC1,1010
5,CN1C(=O)CCC2(CNC(=O)NCCc3ccccc3)CCCC=C12 (configuration not stated),763
6,Cc1nn(-c2ccccc2)c(C)c1S(=O)(=O)N1CCC(C(=O)Nc2ccc(C(C)C)cc2)CC1,1100
7,O=C1CC(NC(=O)COc2ccc(F)cc2)CN1 (configuration not stated),586
8,CCCN(CC1CCOC1)C(=O)Nc1cccc(Cl)c1C (configuration not stated),835
9,CC1CN(Cc2nc3c(c(=O)n(C)c(=O)n3C)n2Cc2ccccc2Cl)CC(C)O1 (configuration not stated),751
10,Cn1c(=O)n([C@H]2CCN(C(=O)c3ccco3)C2)c2ncccc21,656
11,O=C(c1ccoc1)N1[C@H]2CC[C@@H]1c1cnc(-c3ccc(F)cc3)nc1C2,882
12,CN1CCCn2nc(C3CCN(S(=O)(=O)c4ccc5c(c4)OCCO5)CC3)cc2C1=O,718
13,CC(C)C(=O)OC[C@H]1O[C@@H](n2ccc(N)nc2=O)[C@](C)(F)[C@@H]1OC(=O)C(C)C,799
14,Cc1ccc2nc3c(c(C(=O)NC4CCCC4)c2c1)CCC3,690
15,CS(=O)(=O)N1CCCc2cc(C(=O)N3CCCCCC3)ccc21,800
16,COCc1nnc(NS(=O)(=O)c2ccc([N+](=O)[O-])cc2)s1,702
17,Cn1c(CNC(=O)C2CCc3nc(N4CCCC4)ncc3C2)nc2ccccc21 (configuration not stated),529
18,CC1CCN(S(=O)(=O)c2nn(C)cc2C(=O)NCC(C)c2ccccc2)CC1 (configuration not stated),1030
19,Cc1ccc(NS(=O)(=O)c2ccc(-c3nnc(C4CCC4)o3)o2)cc1F,962

row,Compound,RP-LC retention time [s]
1,COc1cc([C@@H]2c3cc4c(cc3[C@H](O)[C@@H](CO)[C@@H]2C(=O)NCC2CC2)OCO4)cc(OC)c1OC,666
2,CCN1C(=O)C2CCCN2C(=O)c2ccccc21 (configuration not stated),639
3,COc1ccc(-n2ncc3c(NC4CC4)ncnc32)cc1,619
4,CCN1c2cc(C(N)=O)ccc2C(=O)N2CCCCCC21 (configuration not stated),649
5,COc1ccc(NC(=O)C2CCN(c3cc(N4CCCC4)ncn3)CC2)cc1OC,616
6,Cc1nc(S(=O)(=O)N2CCC(C(=O)N3CCN(c4ccccc4F)CC3)CC2)cn1C,719
7,COCCNC(=O)c1cc2c(s1)N(C)CCC2,703
8,COc1ccc(Cl)cc1NC(=O)C1CCCN(c2cc(=O)n(C)c(=O)n2C)C1 (configuration not stated),786
9,Cc1ccc(CN2C[C@@H]3C(=O)N(CCc4ccccc4)C(=O)[C@@H]3C2)cc1,760
10,O=C(NC1CCN(C(=O)c2cn(-c3cccc(F)c3)nn2)CC1)c1ccc2ccccc2n1,831
11,CC1CCn2c(nc3cc(C(=O)N4CCN(c5ncccn5)CC4)ccc32)C1 (configuration not stated),593
12,Cc1ccc(Nc2nc(NCCO)c3cnn(C)c3n2)cc1C,610
13,CCCc1cc(N2CCN(C(=O)c3ccc(N(C)C)cc3)CC2)nc2nncn12,612
14,CN(C)C(=O)c1csc(S(=O)(=O)N2CCC(C(=O)NCc3ccc4c(c3)OCO4)CC2)c1,714
15,Cc1noc(C2(NC(=O)Nc3cccc(Cl)c3C)CCCCC2)n1,872
16,O=C(c1n[nH]c2ccccc12)N1CCC(c2noc(C3CC3)n2)C1 (configuration not stated),720
17,CCN1CCCn2cc(S(=O)(=O)Nc3ccc(OC)c(Cl)c3)cc2C1=O,740
18,CC(C)NC(=O)N1CCCC(c2cccc(C(=O)NCC3CCCCC3)c2)C1 (configuration not stated),945
19,Cc1ccc(-n2nc(N3CCCC(C(=O)NCc4ccc(OC(C)C)cc4)C3)ccc2=O)cc1Cl (configuration not stated),999

# Now from value to compound:
row,RP-LC retention time [s],Compound
1,625,CCC(=O)Nc1ccc(CCc2nc3ccc(C(=O)NC4CCCC4)cc3[nH]2)cc1
2,810,COC(=O)CNC(=O)NC(Cc1ccccc1)Cc1ccc2c(c1)OCO2 (configuration not stated)
3,661,CCN1CCN(c2nc3cc(C(=O)OC)ccc3c(=O)n2-c2cc(OC)cc(OC)c2)CC1
4,854,CCc1ccccc1NC(=O)Cn1c(=O)c(CCC(=O)NCC(C)C)nc2ccccc21
5,818,Cc1nn(CC(=O)NCC2CCCO2)c(=O)c2c(-n3cccc3)n(-c3cccc(F)c3)nc12 (configuration not stated)
6,689,COc1cccc2c(Nc3ccccc3C)cc(C(=O)N3CCSCC3)nc12
7,1080,CCN1C(=O)c2cc(S(=O)(=O)Nc3cc(C)cc(C)c3)ccc2Oc2cccnc21
8,574,CN(C)S(=O)(=O)c1ccc(C(=O)Nc2sc3c(c2C#N)CC(C)(C)NC3(C)C)cc1
9,1130,CCOC(=O)c1c(C)oc2nc(C)nc(NC3CCCc4ccccc43)c12 (configuration not stated)
10,943,Cc1sc(NC(=O)c2cccc(Br)c2)nc1-c1ccc2c(c1)N(C)C(=O)CO2
11,794,COc1ccc(CC(=O)N2CCCC(c3nnc(-c4ccccc4F)s3)C2)cc1OC (configuration not stated)
12,1150,CCc1nc(-c2csc(S(=O)(=O)N3CCCC(C(=O)Nc4ccc(Cl)cc4F)C3)c2)no1 (configuration not stated)
13,903,Cc1ccc(N2C(=O)CN(S(C)(=O)=O)CC2(C)C(=O)NCc2ccc(Cl)cc2)c(C)c1 (configuration not stated)
14,627,Cc1ccc(C)c2c(=O)c3c([nH]c12)CCN(CC(=O)Nc1ccccc1)C3
15,930,COc1ccc(Cl)cc1N1CC(c2nc(-c3cccs3)no2)CC1=O (configuration not stated)
16,833,Cc1noc(-c2ccnc(-n3cnc(C(=O)NCc4ccccc4F)c3)c2)n1
17,1100,CC1(C)CC(=O)c2cc3c(N)c(C(=O)Nc4ccccc4[N+](=O)[O-])sc3nc2C1
18,757,Cn1c(=O)c2c(-c3ccc(F)cc3)c(C#N)c(N)nc2n(C)c1=O
19,933,Cc1ccc(NC(=O)C2CCN(S(=O)(=O)c3ccc4c(c3)sc(=O)n4C)CC2)cc1F
20,1050,Cc1ccc(C)c(Cn2nc3c(S(=O)(=O)N4CCN(c5ccc(F)cc5)CC4)cccn3c2=O)c1
21,742,COCCOC(=O)C1=C(C)NC(=O)NC1c1cn(-c2ccccc2)nc1-c1cccs1 (configuration not stated)
22,763,N#Cc1cccc(NC(=O)CN2C(=O)NC(c3ccc(Cl)cc3)C3=C2COC3=O)c1 (configuration not stated)
23,618,Cc1cccc(CCNC(=S)Nc2ccc3nc(N4CCN(C)CC4)cc(C)c3c2)c1
24,883,O=C(Cc1csc2nc(-c3ccccc3)cn12)Nc1ccc(Br)cc1F
25,801,Cc1noc(-c2ccc(OC3CN(C(=O)NC4CCCC4)C3)cc2)n1

row,RP-LC retention time [s],Compound
1,692,Cc1nnc(-c2ccc3ccn(CC(=O)N4CCN(c5ncccn5)CC4)c3c2)o1
2,738,CC(C)Oc1ccc(CNC(=O)c2nc(N3CCOCC3)c3ccccc3n2)cc1
3,755,Cc1nnc(-c2cn(CC(=O)Nc3cccc(F)c3)c3ccccc23)o1
4,577,Cc1ccc2[nH]c(=O)c(CCC(=O)NCCc3ccccn3)cc2c1
5,777,COc1ccc(CC(=O)Nc2c3c(nn2-c2ccc([N+](=O)[O-])cc2)CSC3)cc1OC
6,869,O=C(Cn1ccn2nc(-c3ccccc3)c(CO)c2c1=O)Nc1ccc(Cl)cc1F
7,910,COc1ccccc1CNC(=O)C1CCN(S(C)(=O)=O)c2cc(Cl)ccc2O1 (configuration not stated)
8,720,Cc1ccc(NC(=O)CN2C(=O)CCc3cc(S(=O)(=O)N4CCCCC4C)ccc32)cc1C (configuration not stated)
9,1160,CCc1nc(-c2cc(S(=O)(=O)Nc3cc(F)ccc3Cl)c(C)s2)cs1
10,719,Cc1ccc2nc(Cl)c3cc(C(=O)N4CCN(c5ccccn5)CC4)sc3c2c1
11,588,CCOc1ccc2nc(Nc3ncc4c(n3)CCCC4=O)nc(C)c2c1
12,814,CCn1ccc2sc(C)c(C(=O)NCc3cccc(OC)c3OC)c2c1=O
13,603,COCCNC(=O)c1ccc(-c2ccc(N3CCCCC3)nc2)cc1
14,627,Cc1ccc(-n2nc(C)c3nc(CCC(=O)N4CCN(c5ccccn5)CC4)c(=O)n(C)c32)cc1
15,1310,Cc1nc(-c2ccccc2)sc1C(=O)Nc1nc(-c2ccccc2Cl)cs1
16,697,CCN1C(=O)c2cccnc2Sc2cc(C(=O)NC(C)C)ccc21
17,614,CCCS(=O)(=O)Nc1cccc(-c2cn3ccc(C)cc3n2)c1
18,697,O=C(O)c1cccc(Nc2c(-c3ccccc3)nc3cnccn23)c1
19,1150,COc1ccc(C2Cn3nnc(-c4nc(-c5ccccc5Cl)no4)c3CO2)cc1 (configuration not stated)
20,809,COc1ccccc1CNC(=O)c1ccc2c(c1)NC(=O)C1CCCCN21 (configuration not stated)
21,648,COc1ccc(C(=O)NC(C)C(=O)Nc2nc3ccccc3[nH]2)cc1 (configuration not stated)
22,655,CN(C)c1ccc(-c2nc3cnccn3c2Nc2cccc(C(=O)O)c2)cc1
23,847,COC(=O)C1=CN(c2ccc(F)cc2)c2ccc(F)cc2S1(=O)=O
24,830,CCc1ccccc1N1C(=O)CN(S(C)(=O)=O)CC1(C)C(=O)NCc1ccc(F)cc1 (configuration not stated)
